Measurements taken from patent US20090124682A1, “Indan-Amide Derivatives with Glycogen Phosphorylase Inhibitory Activity” (priority 2005, published 2009).

Columns and labels:
[1] = molecular target: T1, Human recombinant liver glycogen phosphorylase a (hrl GPa) (Homo sapiens, UniProt P06737); assay: glycogen phosphorylase multienzyme coupled assay (glucose-1-phosphate production from glycogen); assay type: biochemical; settings: hrl GPa 20 nM, 6 hours at 30° C., 8 mM glucose
T1 sequence (P06737 1-847): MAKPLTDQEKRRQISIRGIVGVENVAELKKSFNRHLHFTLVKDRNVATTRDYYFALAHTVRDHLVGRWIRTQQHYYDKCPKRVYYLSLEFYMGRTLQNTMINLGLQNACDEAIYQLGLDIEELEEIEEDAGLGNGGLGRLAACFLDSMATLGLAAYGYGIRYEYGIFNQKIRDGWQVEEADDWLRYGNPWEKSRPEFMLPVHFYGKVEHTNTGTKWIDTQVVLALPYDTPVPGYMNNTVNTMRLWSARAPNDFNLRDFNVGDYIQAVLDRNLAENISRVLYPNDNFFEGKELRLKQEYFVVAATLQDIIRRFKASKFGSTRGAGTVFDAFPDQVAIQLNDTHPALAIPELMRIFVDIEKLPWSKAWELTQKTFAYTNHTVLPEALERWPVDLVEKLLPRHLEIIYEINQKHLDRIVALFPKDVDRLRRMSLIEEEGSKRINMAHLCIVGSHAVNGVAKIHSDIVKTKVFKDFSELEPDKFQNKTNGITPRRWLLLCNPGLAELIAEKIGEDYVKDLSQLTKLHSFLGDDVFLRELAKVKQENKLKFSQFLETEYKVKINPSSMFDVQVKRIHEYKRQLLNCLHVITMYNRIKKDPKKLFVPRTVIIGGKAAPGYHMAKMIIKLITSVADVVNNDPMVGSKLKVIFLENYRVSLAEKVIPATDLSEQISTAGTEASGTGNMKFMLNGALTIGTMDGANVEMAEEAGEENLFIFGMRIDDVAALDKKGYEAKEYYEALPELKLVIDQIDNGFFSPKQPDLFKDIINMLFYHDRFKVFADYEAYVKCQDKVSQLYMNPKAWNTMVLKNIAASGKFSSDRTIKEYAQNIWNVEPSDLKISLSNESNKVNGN
Experimental: The activity of the compounds is determined by measuring the inhibitory effect of the compounds on glycogen degradation, the production of glucose-1-phosphate from glycogen is monitored by the multienzyme coupled assay, as described in EP 0 846 464 A2, general method of Pesce et al (Pesce, M A, Bodourian, S H, Harris, R C, and Nicholson, J F (1977) Clinical Chemistry 23, […]). The reactions were in 384 well microplate format in a volume of 50 μl. The change in fluorescence due to the conversion of the co-factor NAD to NADH is measured at 340 nm excitation, 465 nm emission in a Tecan Ultra Multifunctional Microplate Reader. The reaction is in 50 mM HEPES, 3.5 mM KH2PO4, 2.5 mM MgCl2, 2.5 mM ethylene glycol-bis(b-aminoethyl ether) N,N,N′N′-tetraacetic acid, 100 mM KCl, 8 mM D-(+)-glucose pH7.2, containing 0.5 mM dithiothreitol, the assay buffer solution. Human recombinant liver glycogen phosphorylase a (hrl GPa) 20 nM is pre-incubated in assay buffer solution with 6.25 mM NAD, 1.25 mg type III glycogen at 1.25 mg ml^−1 the reagent buffer, for 30 minutes. […] The non-inhibited activity of GPa is measured in the presence of 10 μl 15% DMSO in assay buffer solution and maximum inhibition measured in the presence of 5 mgs ml^−1 N-ethylmaleimide. […] Relative Fluoresence Units (RFUs) are measured at 340 nm excitation, 465 nm emission. […]
Activity is calculated as follows:—

hepatocytes = settings: cited from earlier work; for glucose output: glucagon stimulated
db/db and ob/ob mice = db/db and ob/ob mice following treatment; cited from earlier work
conscious dogs = settings: following a glucagon challenge; cited from earlier work

IC50 [1] [µM] | Compound | glucagon stimulated glycogenolysis (hepatocytes) | glucose output (hepatocytes) | plasma glucose concentration (db/db and ob/ob mice) | also measured
0.161 | O=C(O)C[C@@H]1c2ccccc2C[C@H]1NC(=O)c1cc2cc(F)ccc2[nH]1 [Example 5, ((1R,2R)-2-{[(5-Fluoro-1H-indol-2-yl)carbonyl]amino}-2,3-dihydro-1H-inden-1-yl)acetic acid] |  |  |  | 
 | CN(C)C(=O)[C@H](O)[C@H](Cc1ccccc1)NC(=O)c1cc2cc(Cl)ccc2[nH]1 [CP91149] | reduce | reduce | reduced, in a dose related manner | 
 | O=C(N[C@@H](Cc1ccc(F)cc1)C(=O)N1CCC(O)CC1)c1cc2cc(Cl)ccc2[nH]1 [CP320626] | reduce | reduce | reduced, in a dose related manner | 
1.67 | O=C(O)COC[C@@H]1c2ccccc2C[C@H]1NC(=O)c1cc2cc(F)ccc2[nH]1 [Example 2, [((1R,2R)-2-{[(5-Fluoro-1H-indol-2-yl)carbonyl]amino}-2,3-dihydro-1H-inden-1-yl)methoxy]acetic acid] |  |  |  | 
 | CCN1C(C)=C(C(=O)OC(C)C)C(c2ccccc2Cl)C2=C1COC2=O (stereo not shown) [Bay R 3401] |  |  |  | arterial plasma glucose (conscious dogs): reduced significantly; hepatic glucose output (conscious dogs): reduced significantly
